For assay [1], the target named is T1, FGM (FAD-GDH-MCD): Burkholderia cepacia FAD-GDH alpha subunit fused to minimal cytochrome domain MCR-2 of MamP (magnetoovoid bacterium MO-127), full DNA constru (Burkholderia lata, UniProt Q397F4).
T1 construct: gamma co-expressed; E. coli BL21
In kind it is biochemical.

Assay [2] deals with GDH-S247PDAz: Burkholderia cepacia FAD-GDH variant S247PrK lacking the MCD domain, clicked to PDAz linker (Burkholderia lata, UniProt Q397F4). As to conditions: read-out: KM^app (electrochemical); glucose; 300 mV vs. Ag/AgCl, 100 mM acetate buffer pH=5.0, RT; non-linear fit. As for the experimental part:
(§1) The current from each glucose concentration (10 μM-10 mM) was measured in triplicates; curves of the mean currents are presented with standard deviations. […] The current was measured in triplicates and the mean current values were used for the linear regression and are presented with error bars (FIG. 18H);
(§2) Pyrrolysyl orthogonal translation system (pylOTS) DNA sequence was amplified from the pEVOL plasmid using polymerase chain reaction (PCR) and cloned into the backbone of pec86 plasmid using Gibson's assembly to generate a new plasmid called pec86-pylOTS (FIG. 15A). pylOTS allows the continuous expression of an orthogonal translation system (orthogonal tRNA and aminoacyl tRNA synthetase) for incorporation of PrK (1) using the amber (TAG) stop codon suppression, while the pec86 plasmid is responsible for the continuous expression of E. coli cytochrome c maturation system. […] Four different TAG mutants were planned using site-directed mutagenesis, according to GDH crystal structure. Our guiding rational for mutation sites was to control the enzyme orientation in a manner that will allow proximity of 14 Å or less between the FAD or heme site and the electrode, without interference with the protein structure and correct folding. The sites that were tested were R42TAG and S247TAG, which are in close proximity to the FAD binding-site, while T558TAG (FIG. 11C, right panel) is in a close proximity to the heme domain.
(§3) The azide in (2) was clicked to the alkyne residue of (FIG. 11B, 1). 3 μM of protein sample was mixed with 400 μM (2), 2 mM tris pH=8.2, 10 mM KCl, 1 mM Cu(I), 1.2 mM THPTA, 2.5 mM NaAsc and 10% Dimethyl sulfoxide (DMSO). The reaction was incubated for 1 h in the dark at room temperature with shaking, then transferred to 4° C. for two days before use.

Assay [3] addresses FGM-S247PDAz: FGM (Burkholderia cepacia FAD-GDH-MCD) variant S247PrK (S247X, SEQ ID NO: 20), clicked to PDAz linker (Burkholderia lata, UniProt Q397F4). As to conditions: read-out: KM^app (electrochemical); glucose; 300 mV vs. Ag/AgCl, 100 mM acetate buffer pH=5.0, RT; non-linear fit. As to the method:
as §1, §2, §3

Assay [4] relates to FGM-T558PDAz: FGM (Burkholderia cepacia FAD-GDH-MCD) variant T558PrK (T558X, SEQ ID NO: 22), clicked to PDAz linker. As to conditions: read-out: KM^app (electrochemical); glucose; 300 mV vs. Ag/AgCl, 100 mM acetate buffer pH=5.0, RT; non-linear fit. As for the experimental part:
as §1, §2, §3

The target of assay [5] is FGM-S247PCA: FGM (Burkholderia cepacia FAD-GDH-MCD) variant S247PrK (S247X, SEQ ID NO: 20), EDC-NHS coupled to PCA linker (Burkholderia lata, UniProt Q397F4). As to conditions: read-out: KM^app (electrochemical); glucose; 300 mV vs. Ag/AgCl, 100 mM acetate buffer pH=5.0, RT; non-linear fit. As for the experimental part:
as §1, §2, §3

Here are results for 1 molecule from patent publication US12359238B2 (priority 2017, dated 2025).

As to `OC[C@H]1OC(O)[C@H](O)[C@@H](O)[C@@H]1O` (stereo partly drawn) [glucose], the “KM^app value times higher for FGM compared to GDH” value in assay [1] is “ca. 3 times”. The “catalytic efficiency (k) times higher compared to GDH” value in assay [1] (FGM compared to GDH, D-glucose) is reported as “more than 3 times”. Also, the Km amounted to 1550 ± 160 µM in assay [2], 1890 ± 100 µM in assay [3], 1580 ± 220 µM in assay [4] and 1820 ± 180 µM in assay [5].

Broadly, the Km is the substrate concentration at which the rate is half of its maximum.
